In ChEMBL document CHEMBL2150925, “The Synthesis and Antimicrobial Activity of Heterocyclic Derivatives of Totarol” (ACS Med Chem Lett, 2012):
Converted amounts (≈) assume the structure as drawn. The source made the active and inactive calls. The calls are words filed in the database; no cut-off is given here.

Key:
[1] = tested on: Bacillus subtilis; assay: Antibacterial activity against Bacillus subtilis 168 after 16 hrs; assay type: functional; conditions: subsp. subtilis str. 168, 16 h
[2] = molecular target: T1, Cell division protein FtsZ (Bacillus subtilis (strain 168), UniProt P17865); assay: Inhibition of Bacillus subtilis FtsZ GTPase activity by enzyme-coupled assay
T1 sequence (P17865 whole entry): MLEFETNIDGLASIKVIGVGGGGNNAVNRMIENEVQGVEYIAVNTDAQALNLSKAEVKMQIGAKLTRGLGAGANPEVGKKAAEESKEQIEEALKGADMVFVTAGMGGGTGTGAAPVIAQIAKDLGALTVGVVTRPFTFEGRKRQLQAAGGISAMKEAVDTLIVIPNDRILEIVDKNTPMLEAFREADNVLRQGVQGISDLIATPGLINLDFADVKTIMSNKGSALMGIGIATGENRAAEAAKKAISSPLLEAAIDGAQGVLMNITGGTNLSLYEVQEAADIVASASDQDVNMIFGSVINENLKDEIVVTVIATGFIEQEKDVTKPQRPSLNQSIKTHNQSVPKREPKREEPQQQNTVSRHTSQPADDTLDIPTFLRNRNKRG

[3] = molecular target: T2, Cell division protein FtsZ (Bacillus subtilis (strain 168)) (UniProt P17865); assay: Inhibition of Bacillus subtilis FtsZ GTPase activity by enzyme-coupled assay in presence of 0.01% triton X-100
T2 sequence (whole entry): T1 sequence (P17865 whole entry)

[4] = molecular target: T2, Cell division protein FtsZ (Bacillus subtilis (strain 168)); assay: Inhibition of Bacillus subtilis FtsZ GTPase activity up to 64 uM by enzyme-coupled assay
[5] = tested on: Bacillus subtilis; assay: Ratio of totarol MIC to compound MIC for Bacillus subtilis 168; assay type: functional, subsp. subtilis str. 168

SMILES	MIC [1] [µM]	other results
CC(C)c1c(O)ccc2c1NC[C@H]1C(C)(C)CCC[C@]21C	20 (≈ 5.75 µg/mL)	
CC(C)c1c(O)ccc2c1CC[C@H]1C(C)(C)/C(=N/O)CC[C@]21C	> 160	
COc1ccc2c(c1C(C)C)CC[C@H]1C(C)(C)c3[nH]c4ccc(C#N)cc4c3C[C@]21C (racemic)	> 100	
CC(C)c1c(O)ccc2c1CC[C@H]1C(C)(C)c3oncc3C[C@]21C	40 (≈ 13 µg/mL)	
CC(C)c1c(O)ccc2c1CC[C@H]1C(C)(C)CCC[C@]21C [TOTAROL]	2.5 (≈ 0.716 µg/mL)	IC50 [2]: 24 µM; inhibition [3]: inactive
Cc1ccc2c3c([nH]c2c1C)C(C)(C)[C@@H]1CCc2c(ccc(O)c2C(C)C)[C@@]1(C)C3 (racemic)	11 (≈ 4.42 µg/mL)	
CC(=O)N1C[C@H]2C(C)(C)CCC[C@]2(C)c2ccc(O)c(C(C)C)c21	> 256	
CC(C)c1c(O)ccc2c1CC[C@H]1C(C)(C)c3[nH]ncc3C[C@]21C	> 160	
CC(C)c1c(O)ccc2c1CC[C@H]1C(C)(C)c3c(cnn3-c3ccccc3)C[C@]21C	> 160	
CC(C)c1c(O)ccc2c1CC[C@H]1C(C)(C)NC(=O)CC[C@]21C	> 160	
CN[C@H](CC(C)C)C(=O)N[C@H]1C(=O)N[C@@H](CC(N)=O)C(=O)N[C@H]2C(=O)N[C@H]3C(=O)N[C@H](C(=O)N[C@H](C(=O)O)c4cc(O)cc(O)c4-c4cc3ccc4O)[C@H](O)c3ccc(c(Cl)c3)Oc3cc2cc(c3O[C@@H]2O[C@H](CO)[C@@H](O)[C@H](O)[C@H]2O[C@H]2C[C@](C)(N)[C@H](O)[C@H](C)O2)Oc2ccc(cc2Cl)[C@H]1O [VANCOMYCIN]	0.63 (≈ 0.913 µg/mL)	
CC(C)c1c(O)ccc2c1CC[C@H]1C(C)(C)C(N)CC[C@]21C (some centres not stated)	> 160	
CC(C)c1c(O)ccc2c1CC[C@H]1C(C)(C)c3[nH]c4c(Cl)cc(Cl)cc4c3C[C@]21C (racemic)	0.78 (≈ 0.345 µg/mL)	
COc1ccc2c(c1C(C)C)CC[C@H]1C(C)(C)C(=O)/C(=C\O)C[C@]21C	> 160	

The next lines start with results.

MIC [1] [µM]	SMILES	other results
0.78 (≈ 0.344 µg/mL)	CC(C)c1c(O)ccc2c1CC[C@H]1C(C)(C)c3[nH]c4ccc(C(F)(F)F)cc4c3C[C@]21C (racemic)	
2.5 (≈ 0.934 µg/mL)	CC(C)c1c(O)ccc2c1CC[C@H]1C(C)(C)c3[nH]c4ccccc4c3C[C@]21C	inhibition [4]: inactive; Ratio [5]: 4
1 (≈ 0.402 µg/mL)	CCc1cccc2c3c([nH]c12)C(C)(C)[C@@H]1CCc2c(ccc(O)c2C(C)C)[C@@]1(C)C3 (racemic)	
80 (≈ 31.3 µg/mL)	CC(C)c1c(O)ccc2c1CC[C@H]1C(C)(C)c3[nH]c4ccc(F)cc4c3C[C@]21C (racemic)	
6.3 (≈ 2.45 µg/mL)	CC(C)c1c(O)ccc2c1CC[C@H]1C(C)(C)c3[nH]c4c(O)cccc4c3C[C@]21C (racemic)	
2.5 (≈ 1 µg/mL)	CCc1ccc2[nH]c3c(c2c1)C[C@]1(C)c2ccc(O)c(C(C)C)c2CC[C@H]1C3(C)C (racemic)	
0.78 (≈ 0.311 µg/mL)	CC(C)c1c(O)ccc2c1CC[C@H]1C(C)(C)c3[nH]c4ccc(C#N)cc4c3C[C@]21C (racemic)	inhibition [4]: inactive
5.5 (≈ 2.49 µg/mL)	CC(C)c1c(O)ccc2c1CC[C@H]1C(C)(C)c3[nH]c4ccc(S(N)(=O)=O)cc4c3C[C@]21C (racemic)	
